Laboratory results taken from patent US11739074B2, “Ras inhibitors” (Revolution Medicines, Inc., priority 2019, dated 2023).
pEC50, pIC50: −log10 of the molar value.

Key:
[1] = target: T1, NRAS G12C (Homo sapiens, UniProt P01111+P62937, G12C); test: Ras-Raf disruption/FRET/MOA assay, NRAS G12C; assay type: biochemical; details: NRAS G12C; read-out: NRAS G12C FRET data IC50
T1 construct: His6
Method in brief: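 Disruption of Ras:RAF binding was read as a drop in TR-FRET ratio versus DMSO controls. The buffer was 25 mM HEPES pH 7.3, 0.002% Tween20, 0.1% BSA, 100 mM NaCl and 5 mM MgCl2. Compounds were tested as a 10-point 3-fold dilution series from 30 μM. Detection used 10 nM anti-His Eu-W1024 and 50 nM anti-GST allophycocyanin.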

[2] = system: NCI-H358 (K-Ras G12C); test: CellTiter-Glo cell viability assay, H358; assay type: cell-based; details: Homo sapiens, NCI-H358, 120 h, NCI-H358, K-Ras G12C, 5-day treatment; read-out: H358 Cell Viability IC50
Method in brief: (§1)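 Compounds dispensed directly onto seeded AsPC-1 (K-Ras G12D) or NCI-H358 (K-Ras G12C) cells; CellTiter-Glo luminescence read on day 5 after ~30 min equilibration to room temperature. Signal normalized to DMSO average (%) and fit by four-parameter logistic.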

[3] = target: KRAS G12V (Homo sapiens, UniProt P01116+P62937, G12V); test: Ras-Raf disruption/FRET/MOA assay, KRAS G12V; assay type: biochemical; details: disruption of BRAF RBD binding, with Cyclophilin A; read-out: KRAS G12V FRET IC50
Method in brief: (§2)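 Compounds promote a Cyclophilin A (25 μM) ternary complex with His6-KRAS-GMPPNP, which blocks binding of GST-BRAF^RBD (50 nM). Titration runs to a 30 μM top concentration, and loss of RAF binding is detected by TR-FRET.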

[4] = target: T2, NRAS WT (Homo sapiens, UniProt P01111+P62937); test: Ras-Raf disruption/FRET/MOA assay, NRAS WT; assay type: biochemical; details: NRAS WT; read-out: NRAS WT FRET data IC50
T2 construct: His6
Text: (§3) Disruption of B-Raf Ras-Binding Domain (BRAF^RBD) Interaction with K-Ras by Compounds of the Invention (Also Called a FRET Assay or an MOA Assay)
(§4) Note—The following protocol describes a procedure for monitoring disruption of K-Ras G12C (GMP-PNP) binding to BRAF^RBD by a compound of the invention. This protocol may also be executed substituting other Ras proteins or nucleotides, such as K-Ras G12D and K-Ras G13D.
(§5) The purpose of this biochemical assay was to measure the ability of test compounds to facilitate ternary complex formation between a nucleotide-loaded K-Ras isoform and Cyclophilin A; the resulting ternary complex disrupts binding to a BRAF^RBD construct, inhibiting K-Ras signaling through a RAF effector.
(§6) In assay buffer containing 25 mM HEPES pH 7.3, 0.002% Tween20, 0.1% BSA, 100 mM NaCl and 5 mM MgCl2, tagless Cyclophilin A, His6-K-Ras-GMPPNP, and GST-BRAF^RBD were combined in a 384-well assay plate at final concentrations of 25 μM, 12.5 nM, and 50 nM, respectively. Compound was present in plate wells as a 10-point 3-fold dilution series starting at a final concentration of 30 μM. After incubation at 25° C. for 3 hours, a mixture of anti-His Eu-W1024 and anti-GST allophycocyanin was then added to assay sample wells at final concentrations of 10 nM and 50 nM, respectively, and the reaction incubated for an additional 1.5 hours. […] Compounds that facilitate disruption of a K-Ras:RAF complex were identified as those eliciting a decrease in the TR-FRET ratio relative to DMSO control wells.

[5] = system: AsPC-1 (K-Ras G12D); test: CellTiter-Glo cell viability assay, AsPC-1; assay type: cell-based; details: Homo sapiens, ASPC1, 120 h, AsPC-1, K-Ras G12D, 5-day treatment; read-out: AsPC-1 Cell Viability IC50
Method in brief: as §1

[6] = target: KRAS G13C (Homo sapiens, UniProt P01116+P62937, G13C); test: Ras-Raf disruption/FRET/MOA assay, KRAS G13C; assay type: biochemical; details: disruption of BRAF RBD binding, with Cyclophilin A; read-out: KRAS G13C FRET IC50
Method in brief: as §2

[7] = target: KRAS G12C (Homo sapiens, UniProt P01116+P62937, G12C); test: Ras-Raf disruption/FRET/MOA assay, KRAS G12C; assay type: biochemical; details: disruption of BRAF RBD binding, with Cyclophilin A; read-out: KRAS G12C FRET IC50
Method in brief: as §2

[8] = target: T3, NRAS Q61R (Homo sapiens, UniProt P01111+P62937, Q61R); test: Ras-Raf disruption/FRET/MOA assay, NRAS Q61R; assay type: biochemical; details: NRAS Q61R; read-out: NRAS Q61R FRET data IC50
T3 construct: His6
Text: as §3, §4, §5, §6

[9] = target: T4, NRAS Q61K (Homo sapiens, UniProt P01111+P62937, Q61K); test: Ras-Raf disruption/FRET/MOA assay, NRAS Q61K; assay type: biochemical; details: NRAS Q61K; read-out: NRAS Q61K FRET data IC50
T4 construct: His6
Text: as §3, §4, §5, §6

[10] = target: KRAS Q61H (Homo sapiens, UniProt P01116+P62937, Q61H); test: Ras-Raf disruption/FRET/MOA assay, KRAS Q61H; assay type: biochemical; details: KRAS Q61H; read-out: KRAS Q61H FRET data IC50
Text: as §3, §4, §5, §6

[11] = target: KRAS G12D (Homo sapiens, UniProt P01116+P62937, G12D); test: Ras-Raf disruption/FRET/MOA assay, KRAS G12D; assay type: biochemical; details: disruption of BRAF RBD binding, with Cyclophilin A; read-out: KRAS G12D FRET IC50
Method in brief: as §2

[12] = target: KRAS G12S (Homo sapiens, UniProt P01116+P62937, G12S); test: Ras-Raf disruption/FRET/MOA assay, KRAS G12S; assay type: biochemical; details: disruption of BRAF RBD binding, with Cyclophilin A; read-out: KRAS G12S FRET IC50
Method in brief: as §2

[13] = target: KRAS WT (Homo sapiens, UniProt P01116+P62937); test: Ras-Raf disruption/FRET/MOA assay, KRAS WT; assay type: biochemical; details: disruption of BRAF RBD binding, with Cyclophilin A; read-out: KRAS WT FRET IC50
Method in brief: as §2

[14] = target: KRAS G13D (Homo sapiens, UniProt P01116+P62937, G13D); test: Ras-Raf disruption/FRET/MOA assay, KRAS G13D; assay type: biochemical; details: disruption of BRAF RBD binding, with Cyclophilin A; read-out: KRAS G13D FRET IC50
Method in brief: as §2

[15] = system: AsPC-1 (K-Ras G12D); test: Potency assay: pERK in AsPC-1 cells; assay type: cell-based; details: Homo sapiens, ASPC1; AsPC-1 cells, K-Ras G12D; read-out: pERK EC50 (AsPC-1 KRAS G12D)

T1 sequence (P01111 whole entry G12C): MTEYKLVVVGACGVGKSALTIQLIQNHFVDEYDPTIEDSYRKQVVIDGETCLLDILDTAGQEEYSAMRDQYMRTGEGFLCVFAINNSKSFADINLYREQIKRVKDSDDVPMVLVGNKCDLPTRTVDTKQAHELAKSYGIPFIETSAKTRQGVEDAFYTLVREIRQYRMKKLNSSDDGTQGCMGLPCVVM
T1 sequence (P62937 whole entry): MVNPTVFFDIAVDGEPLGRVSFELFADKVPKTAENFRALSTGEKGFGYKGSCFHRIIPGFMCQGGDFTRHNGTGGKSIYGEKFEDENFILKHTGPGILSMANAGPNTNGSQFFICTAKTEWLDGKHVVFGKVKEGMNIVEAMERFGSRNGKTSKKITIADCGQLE
Chain of KRAS Q61H (P01116 1-169 isoform P01116-2 Q61H limits assumed): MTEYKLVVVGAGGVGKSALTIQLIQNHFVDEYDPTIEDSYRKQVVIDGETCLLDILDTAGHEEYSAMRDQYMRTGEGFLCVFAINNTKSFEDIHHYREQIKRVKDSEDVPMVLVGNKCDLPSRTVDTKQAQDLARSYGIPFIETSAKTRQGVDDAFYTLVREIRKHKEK
Chain of KRAS Q61H (P62937 whole entry): as the sequence (P62937 whole entry) above
T3 sequence (P01111 whole entry Q61R): as the sequence (P01111 whole entry G12C) above, with C12G, Q61R counted along it
T3 sequence (P62937 whole entry): as the sequence (P62937 whole entry) above
Chain of KRAS G12V (P01116 1-169 isoform P01116-2 G12V limits assumed): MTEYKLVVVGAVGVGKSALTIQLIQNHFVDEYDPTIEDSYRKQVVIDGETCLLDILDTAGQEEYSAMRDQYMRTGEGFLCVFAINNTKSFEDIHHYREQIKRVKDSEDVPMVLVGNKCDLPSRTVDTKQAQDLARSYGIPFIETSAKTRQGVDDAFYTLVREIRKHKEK
Chain of KRAS G12V (P62937 whole entry): as the sequence (P62937 whole entry) above
T2 sequence (P01111 whole entry): as the sequence (P01111 whole entry G12C) above, with C12G counted along it
T2 sequence (P62937 whole entry): as the sequence (P62937 whole entry) above
Chain of KRAS G13C (P01116 1-169 isoform P01116-2 G13C limits assumed): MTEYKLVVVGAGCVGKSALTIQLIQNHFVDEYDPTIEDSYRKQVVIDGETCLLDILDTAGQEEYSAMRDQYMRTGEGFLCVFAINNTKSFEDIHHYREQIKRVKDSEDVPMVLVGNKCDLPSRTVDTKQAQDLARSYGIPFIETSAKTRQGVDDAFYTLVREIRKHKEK
Chain of KRAS G13C (P62937 whole entry): as the sequence (P62937 whole entry) above
Chain of KRAS G13D (P01116 1-169 isoform P01116-2 G13D limits assumed): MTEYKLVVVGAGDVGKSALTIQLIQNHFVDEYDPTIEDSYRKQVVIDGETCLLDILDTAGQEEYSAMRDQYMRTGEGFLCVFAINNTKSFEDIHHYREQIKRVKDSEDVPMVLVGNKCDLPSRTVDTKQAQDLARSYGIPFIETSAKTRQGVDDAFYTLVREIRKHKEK
Chain of KRAS G13D (P62937 whole entry): as the sequence (P62937 whole entry) above
Chain of KRAS WT (P01116 1-169 isoform P01116-2 limits assumed): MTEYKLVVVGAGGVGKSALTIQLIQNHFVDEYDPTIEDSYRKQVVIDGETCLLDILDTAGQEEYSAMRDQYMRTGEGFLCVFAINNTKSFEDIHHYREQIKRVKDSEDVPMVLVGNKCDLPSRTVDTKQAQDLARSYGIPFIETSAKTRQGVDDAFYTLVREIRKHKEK
Chain of KRAS WT (P62937 whole entry): as the sequence (P62937 whole entry) above
Chain of KRAS G12D (P01116 1-169 isoform P01116-2 G12D limits assumed): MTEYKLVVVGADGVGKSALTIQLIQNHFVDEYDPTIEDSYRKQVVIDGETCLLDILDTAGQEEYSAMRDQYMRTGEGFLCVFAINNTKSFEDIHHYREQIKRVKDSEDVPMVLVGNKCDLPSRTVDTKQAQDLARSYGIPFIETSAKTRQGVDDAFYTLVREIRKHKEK
Chain of KRAS G12D (P62937 whole entry): as the sequence (P62937 whole entry) above
Chain of KRAS G12S (P01116 1-169 isoform P01116-2 G12S limits assumed): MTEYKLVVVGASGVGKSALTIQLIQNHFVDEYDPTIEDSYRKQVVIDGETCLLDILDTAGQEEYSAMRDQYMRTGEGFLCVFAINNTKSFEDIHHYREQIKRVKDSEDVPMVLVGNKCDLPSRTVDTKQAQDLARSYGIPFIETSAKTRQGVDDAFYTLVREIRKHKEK
Chain of KRAS G12S (P62937 whole entry): as the sequence (P62937 whole entry) above
Chain of KRAS G12C (P01116 1-169 isoform P01116-2 G12C limits assumed): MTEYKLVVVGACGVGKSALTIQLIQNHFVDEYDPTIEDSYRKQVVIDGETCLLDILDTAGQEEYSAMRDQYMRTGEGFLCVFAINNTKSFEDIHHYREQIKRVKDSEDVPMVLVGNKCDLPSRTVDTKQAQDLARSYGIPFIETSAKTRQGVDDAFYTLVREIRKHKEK
Chain of KRAS G12C (P62937 whole entry): as the sequence (P62937 whole entry) above
T4 sequence (P01111 whole entry Q61K): as the sequence (P01111 whole entry G12C) above, with C12G, Q61K counted along it
T4 sequence (P62937 whole entry): as the sequence (P62937 whole entry) above

Compound	pIC50 [1]	pIC50 [2]	pIC50 [3]	pIC50 [4]	pIC50 [5]	pIC50 [6]	pIC50 [7]	pIC50 [8]	pIC50 [9]	pIC50 [10]	pIC50 [11]	pIC50 [12]	pIC50 [13]	pIC50 [14]	pEC50 [15]
CCn1c(-c2cccnc2[C@H](C)OC)c2c3cc(ccc31)-c1csc(n1)C[C@H](NC(=O)[C@H](C(C)C)N(C)C(=O)N1CCC[C@@H](N(C)C(=O)[C@H]3CN3)C1)C(=O)N1CCC[C@H](N1)C(=O)OCC(C)(C)C2 (atropisomer, axis not shown) [Compound 289]	7.00 to 8.00	7.00 to 8.00	6.00 to 7.00	7.00 to 8.00	6.00 to 7.00	6.00 to 7.00	7.00 to 8.00	7.00 to 8.00	7.00 to 8.00	7.00 to 8.00	6.00 to 7.00	7.00 to 8.00	7.00 to 8.00	6.00 to 7.00	> 5.30
CCn1c(-c2cccnc2[C@H](C)OC)c2c3cc(ccc31)-c1csc(n1)C[C@H](NC(=O)[C@H](C(C)C)N(C)C(=O)N1CCC[C@@H](N(C)C(=O)[C@@H]3CN3)C1)C(=O)N1CCC[C@H](N1)C(=O)OCC(C)(C)C2 (atropisomer, axis not shown) [Compound 291]	7.00 to 8.00	7.00 to 8.00	6.00 to 7.00	7.00 to 8.00	6.00 to 7.00	6.00 to 7.00	7.00 to 8.00	6.00 to 7.00	7.00 to 8.00	7.00 to 8.00	6.00 to 7.00	6.00 to 7.00	7.00 to 8.00	6.00 to 7.00	> 5.30
CCn1c(-c2cccnc2[C@H](C)OC)c2c3cc(ccc31)-c1csc(n1)C[C@H](NC(=O)[C@H](C1CCCC1)N1CC[C@]3(CCN(C(=O)[C@H]4CN4)C3)C1=O)C(=O)N1CCC[C@H](N1)C(=O)OCC(C)(C)C2 [Compound 319]	7.00 to 8.00	> 8.00	5.00 to 6.00	5.00 to 6.00	6.00 to 7.00	6.00 to 7.00	7.00 to 8.00	5.00 to 6.00	6.00 to 7.00	6.00 to 7.00	5.00 to 6.00	5.00 to 6.00	5.00 to 6.00	5.00 to 6.00	> 5.30
CCn1c(-c2cccnc2[C@H](C)OC)c2c3cc(ccc31)-c1csc(n1)C[C@H](NC(=O)[C@H](C(C)C)N(C)C(=O)N1C3CCC1CN(C(=O)[C@H]1CN1)C3)C(=O)N1CCC[C@H](N1)C(=O)OCC(C)(C)C2 [Compound 303]	6.00 to 7.00	7.00 to 8.00	6.00 to 7.00	6.00 to 7.00	6.00 to 7.00	6.00 to 7.00	6.00 to 7.00	6.00 to 7.00	6.00 to 7.00	7.00 to 8.00	6.00 to 7.00	6.00 to 7.00	6.00 to 7.00	6.00 to 7.00	> 5.30
CCn1c(-c2cccnc2[C@H](C)OC)c2c3cc(ccc31)-c1csc(n1)C[C@H](NC(=O)[C@H](C(C)C)N(C)C(=O)N1C3CCC1CN(C(=O)[C@@H]1CN1)C3)C(=O)N1CCC[C@H](N1)C(=O)OCC(C)(C)C2 [Compound 304]	6.00 to 7.00	6.00 to 7.00	6.00 to 7.00	6.00 to 7.00	5.00 to 6.00	5.00 to 6.00	6.00 to 7.00	6.00 to 7.00	6.00 to 7.00	7.00 to 8.00	6.00 to 7.00	6.00 to 7.00	6.00 to 7.00	5.00 to 6.00	> 5.30
CCn1c(-c2cc(N3CCN(C)CC3)cnc2[C@H](C)OC)c2c3cc(ccc31)-c1csc(n1)C[C@H](NC(=O)[C@H](C1CCCC1)N1CC[C@]3(CCN(C(=O)[C@@H]4N[C@@H]4C4CC4)C3)C1=O)C(=O)N1CCC[C@H](N1)C(=O)OCC(C)(C)C2 [Compound 324]	6.00 to 7.00	> 8.00	6.00 to 7.00	6.00 to 7.00	7.00 to 8.00	6.00 to 7.00	6.00 to 7.00	6.00 to 7.00	6.00 to 7.00	6.00 to 7.00	6.00 to 7.00	6.00 to 7.00	6.00 to 7.00	5.00 to 6.00	> 5.30
